Results published in patent publication US20240108740A1, “THERAPEUTIC COMPOSITIONS INCLUDING SPN10 AND USES THEREOF” (Stealth BioTherapeutics Inc., priority 2022, published 2024).
Residues, ends and D or L forms follow the SMILES beside them.

Columns and labels:
[1] = tested on: acute myocardial infarction; assay: Infarct size at revascularization in acute myocardial infarction patients; format: in vivo, human; settings: IV at the time of reperfusion
Text: Men and women, 18 years of age or older, who present after the onset of chest pain, and for whom the clinical decision is made to treat with a revascularization procedure (e.g., PCI or thrombolytics) will be eligible for enrollment. […] The diagnosis is made therefore purely on the basis of symptoms, clinical examination and ECG changes. […] The patient often has a history of having experienced angina, but the ECG at the time of the suspected attack may show no abnormality at all. […] Left ventricular and coronary angiography will be performed with the use of standard techniques, just before revascularization. Revascularization will be performed by PCI with the use of direct stenting. […] The primary end point is the size of the infarct as assessed by measurements of cardiac biomarkers. […] Coronary biomarkers will be measured in each patient. For example, the area under the curve (AUC) (expressed in arbitrary units) for creatine kinase and troponin I release (Beckman kit) may be measured in each patient by computerized planimetry. The principal secondary end point is the size of the infarct as measured by the area of delayed hyperenhancement that is seen on cardiac magnetic resonance imaging (MRI), assessed on day 5 after infarction. […] The images are analyzed in short axis slices covering the entire left ventricle. […]

[2] = tested on: acute myocardial infarction; assay: Infarct size at revascularization, given with cyclosporine; format: in vivo, human; settings: along with cyclosporine at the time of reperfusion
Description: Study group. Men and women, 18 years of age or older, who present within 6 hours after the onset of chest pain, who have ST-segment elevation of more than 0.1 mV in two contiguous leads, and for whom the clinical decision is made to treat with percutaneous coronary intervention (PCI) will be eligible for enrollment. Patients are eligible for the study whether they are undergoing primary PCI or rescue PCI. Occlusion of the affected coronary artery (Thrombolysis in Myocardial Infarction (TIMI) flow grade 0) at the time of admission is also a criterion for inclusion. Angiography and Revascularization. […] Either separately or simultaneously, cyclosporine (final concentration, […] will be injected through the catheter. Normal saline (0.9% NaCl) will be used as a control. The patients in the control group receive an equivalent volume of normal saline. Infarct Size. The primary end point will be the size of the infarct as assessed by measurements of cardiac biomarkers. Blood samples are obtained at admission and repeatedly over the next 3 days. The area under the curve (AUC) (expressed in arbitrary units) for creatine kinase and troponin I release (Beckman kit) will be measured in each patient by computerized planimetry. […] The images are analyzed in short axis slices covering the entire left ventricle. […]

## N=C(N)NCCC[C@H](NC(=O)[C@@H](N)Cc1c[nH]c2ccccc12)C(=O)N[C@@H](Cc1c[nH]c2ccccc12)C(=O)N[C@@H](CCCCN)C(N)=O [SPN10, H-L-Trp-L-Arg-L-Trp-L-Lys-NH2] (H-WRWK-NH2)
[1]
  infarct size versus placebo: smaller infarct
[2]
  infarct size versus placebo: smaller infarct
